Data on 2 substances can be found in paper PMC11955804, “Histidine-rich enantiomeric peptide coacervates enhance antigen sequestration and presentation to T cells” (Chemical Science, 2025).

One data set in a line: Turbidity assay of LLPS. The data set is classed as physicochemical. The settings on record: 1× PBS pH 7.4, absorbance at 600 nm over 24 h, plate reader. The text has this: Peptide synthesis and purification
The L- and D-enantiomers of (GHGLY)4, (GHGVY)4 and (GHGPY)4 peptides were purchased from GenScript and used without further modification. (GHGAY)4, (GHGFY)4, (GHGIY)4 and (GHGNY)4 were synthesized using standard Fmoc-SPPS chemistry on Rink Amide with Oxyma (Ethyl cyano(hydroxyimino) acetate) and N, N′-diisopropylcarbodiimide (DIC) as coupling agents on a Liberty Blue microwave-assisted synthesizer. Peptides were cleaved using a cocktail of trifluoroacetic acid (TFA), tri-isopropyl silane (TIS), and H2O (95:2.5:2.5) and extracted and washed in cold diethyl ether. The resulting pellet was dissolved in acetonitrile/water mixture (50:50) and frozen prior to lyophilization. Peptides were purified (~90%) using High Performance Liquid Chromatography (HPLC) on a Dionex Ultimate 3000 HPLC equipped with a diode-array detector on an Agilent Poroshell RP-C18 column (4.6 mm×150 mm), operating at a flow rate of 1 mL/min. […]
Peptide solutions (0.25–1.5 mM) were prepared in 1×PBS at pH 7.4. Aliquots (140 µL) were pipetted into a 96-well plate and absorbance at 600 nm was measured over 24 h using a Synergy HT plate reader (Biotek, USA) at RT or 37°C with or without agitation. The pH dependence of LLPS formation was assessed in 0.1 M potassium phosphate buffer (with 150 mM NaCl) at different pH values (5.8, 6.6, 7.4, 8.0) and 1 mM peptide concentration. […]
NaCl) was used to study ionic strength effects. The absorbance was further converted to turbidity using methods previously described 1 and data was plotted as relative turbidity. […]
Droplets were visualized in 1×PBS using NCI Leica DMC4500 microscope in reflection mode with differential interference contrast. […] Coacervate size was measured using 1 mM peptide solutions (1×PBS, pH 7.4) on a ZEN 3600 Zetasizer (Malvern Instruments, UK) using DLS-Zen 0040 specialized cuvettes. […]
Viscosity of the peptide solutions (1 mM or 2 mM) was tested using an ARES 2000ex rotational rheometer (TA Instruments, New Castle, DE). […] Viscosity was measured as a function

Another data set relates to DCs. Briefly: DQ-OVA delivery to lysosomes (fluorescence microscopy). The format is cell-based, mouse. The settings on record: DQ-OVA loaded coacervates, 2.5 μg/mL DQ-OVA, fluorescence microscopy. The protocol: page 13: Flow cytometry The transfected A549 cells were washed with FACS wash buffer (FWB; 1× PBS with 10% […] Cells were washed again with FWB and then resuspended in 100 µl of PBS with eBioscience™ Fixable Viability Dye eFluor™ 506 antibody. The staining was quenched with FWB following a 20 min incubation. The cells were centrifuged, washed 2× times with FWB, and resuspended in 100 µl FWB with CD55 (DAF) Antibody (anti-human; miltenyibiotec Cat#130-126-382). After 20 min, staining was quenched, cells washed twice and resuspended in 200 µl FWB for acquisition. Single-stained cells stained with eFluor™ 506, CD55 (DAF) Antibody, were used as compensation controls. Samples were acquired using an Agilent NovoCyte 3000 flow cytometer. Data were analyzed with FlowJo version 10. […] was quantified as the percentage CD55+ cells, considering untreated cells as the negative control and Lipofectamine treated ones as the positive control. Antigen delivery to lysosomes and inhibitor effects DC 2.4 cells were cultured in RPMI-1640 (Catalog number: 11875093) medium supplemented with 10% FBS, 100 U/mL penicillin, 100 μg/mL streptomycin, and 1 mM sodium pyruvate. Cells were plated in 8-well chamber slides (5000 cells in 200 μL of media) and incubated for 24 h prior to addition of DQ-OVA loaded coacervates for 2 h, 6 h, or 24 h (final DQ-OVA concentration was 2.5 μg/mL). Cells treated with PBS or soluble OVA served as controls. Cells were then washed and fixed using 4% Paraformaldehyde (PFA) for 15 min at RT and permeabilized with 0.1% Triton X-100 for 5 min prior to nuclear staining with Hoechst stain (Catalog number: 62249, Thermo Fischer Scientific; 10 μg/mL). Cells were imaged (60×) on Lionheart FX automated microscope (BioTek Instruments, Inc.) with controlled exposure S13 page 14: parameters across two channels: eGFP and DAPI.

Regarding (GHGLY)4 [GL 20], the “turbidity over time (A600)” value in “Turbidity assay of LLPS” is “formed a turbid solution instantaneously”. Further, the “lysosomal processing of DQ-OVA delivered by coacervates” value with DCs is given as “Green fluorescent puncta were detected”.

Take (GHGVY)4 [GV 20]: the “turbidity over time (A600)” value in the data set “Turbidity assay of LLPS” is given as “steadily increased over 24 h”. The “lysosomal processing of DQ-OVA delivered by coacervates” value with DCs is “Green fluorescent puncta were detected”.
